Experimental data from publication PMC12454493, “Insight on novel sulfamoylphenyl pyrazole derivatives as anticancer carbonic anhydrase inhibitors” (Molecular Diversity, 2024).
Values joined by “and” are separate entries in the source; they are usually repeats but may differ in a detail not shown here. Identical values can stand only once.

What was measured:
NCI-H322M = assay: NCI-60 one-dose SRB screen (Non-Small Cell Lung Cancer); assay type: cell-based; conditions: Homo sapiens, single dose 10 µM, 48 h, read-out: Growth inhibition percent (GI %)
NCI-H23 = assay: as above; assay type: cell-based; conditions: Homo sapiens, single dose 10 µM, 48 h, read-out: Growth inhibition percent (GI %)
HOP-62 = assay: as above; assay type: cell-based; conditions: Homo sapiens, single dose 10 µM, 48 h, read-out: Growth inhibition percent (GI %)
A549/ATCC = assay: as above; assay type: cell-based; conditions: Homo sapiens, single dose 10 µM, 48 h, read-out: Growth inhibition percent (GI %)
HOP-92 = assay: as above; assay type: cell-based; conditions: Homo sapiens, single dose 10 µM, 48 h, read-out: Growth inhibition percent (GI %)
NCI-H226 = assay: as above; assay type: cell-based; conditions: Homo sapiens, single dose 10 µM, 48 h, read-out: Growth inhibition percent (GI %)
NCI-H460 = assay: as above; assay type: cell-based; conditions: Homo sapiens, single dose 10 µM, 48 h, read-out: Growth inhibition percent (GI %)
NCI-H522 = assay: as above; assay type: cell-based; conditions: Homo sapiens, single dose 10 µM, 48 h, read-out: Growth inhibition percent (GI %)
EKVX = assay: as above; assay type: cell-based; conditions: Homo sapiens, single dose 10 µM, 48 h, read-out: Growth inhibition percent (GI %)
MOLT-4 = assay: NCI-60 one-dose SRB screen (Leukemia); assay type: cell-based; conditions: Homo sapiens, single dose 10 µM, 48 h, read-out: Growth inhibition percent (GI %)
K-562 = assay: NCI-60 one-dose SRB screen (Leukemia); assay type: cell-based; conditions: Homo sapiens, K562, single dose 10 µM, 48 h, read-out: Growth inhibition percent (GI %)
CCRF-CEM = assay: NCI-60 one-dose SRB screen (Leukemia); assay type: cell-based; conditions: Homo sapiens, single dose 10 µM, 48 h, read-out: Growth inhibition percent (GI %)
HL-60(TB) = assay: NCI-60 one-dose SRB screen (Leukemia); assay type: cell-based; conditions: Homo sapiens, single dose 10 µM, 48 h, read-out: Growth inhibition percent (GI %)
RPMI-8226 = assay: NCI-60 one-dose SRB screen (Leukemia); assay type: cell-based; conditions: Homo sapiens, single dose 10 µM, 48 h, read-out: Growth inhibition percent (GI %)
SR = assay: NCI-60 one-dose SRB screen (Leukemia); assay type: cell-based; conditions: Homo sapiens, single dose 10 µM, 48 h, read-out: Growth inhibition percent (GI %)
hCA XII = hCA XII (Homo sapiens, UniProt O43570); assay: CA inhibitory activity, spectrophotometric p-NPA assay; assay type: biochemical; conditions: p-NPA substrate, pH 7.5, 25 °C, triplicate; read-out: IC50 (µM) ± SD hCA XII
PC-3 = assay: NCI-60 one-dose SRB screen (Prostate Cancer); assay type: cell-based; conditions: Homo sapiens, single dose 10 µM, 48 h, read-out: Growth inhibition percent (GI %)
DU-145 = assay: NCI-60 one-dose SRB screen (Prostate Cancer); assay type: cell-based; conditions: Homo sapiens, single dose 10 µM, 48 h, read-out: Growth inhibition percent (GI %)
ACHN = assay: NCI-60 one-dose SRB screen (Renal Cancer); assay type: cell-based; conditions: Homo sapiens, single dose 10 µM, 48 h, read-out: Growth inhibition percent (GI %)
CAKI-1 = assay: NCI-60 one-dose SRB screen (Renal Cancer); assay type: cell-based; conditions: Homo sapiens, single dose 10 µM, 48 h, read-out: Growth inhibition percent (GI %)
UO-31 = assay: NCI-60 one-dose SRB screen (Renal Cancer); assay type: cell-based; conditions: Homo sapiens, single dose 10 µM, 48 h, read-out: Growth inhibition percent (GI %)
A498 = assay: NCI-60 one-dose SRB screen (Renal Cancer); assay type: cell-based; conditions: Homo sapiens, single dose 10 µM, 48 h, read-out: Growth inhibition percent (GI %)
RXF 393 = assay: NCI-60 one-dose SRB screen (Renal Cancer); assay type: cell-based; conditions: Homo sapiens, single dose 10 µM, 48 h, read-out: Growth inhibition percent (GI %)
TK-10 = assay: NCI-60 one-dose SRB screen (Renal Cancer); assay type: cell-based; conditions: Homo sapiens, single dose 10 µM, 48 h, read-out: Growth inhibition percent (GI %)
786-0 = assay: NCI-60 one-dose SRB screen (Renal Cancer); assay type: cell-based; conditions: Homo sapiens, single dose 10 µM, 48 h, read-out: Growth inhibition percent (GI %)
SK-MEL-28 = assay: NCI-60 one-dose SRB screen (Melanoma); assay type: cell-based; conditions: Homo sapiens, single dose 10 µM, 48 h, read-out: Growth inhibition percent (GI %)
SK-MEL-2 = assay: NCI-60 one-dose SRB screen (Melanoma); assay type: cell-based; conditions: Homo sapiens, single dose 10 µM, 48 h, read-out: Growth inhibition percent (GI %)
MALME-3M = assay: NCI-60 one-dose SRB screen (Melanoma); assay type: cell-based; conditions: Homo sapiens, single dose 10 µM, 48 h, read-out: Growth inhibition percent (GI %)
UACC-62 = assay: NCI-60 one-dose SRB screen (Melanoma); assay type: cell-based; conditions: Homo sapiens, single dose 10 µM, 48 h, read-out: Growth inhibition percent (GI %)
M14 = assay: NCI-60 one-dose SRB screen (Melanoma); assay type: cell-based; conditions: Homo sapiens, single dose 10 µM, 48 h, read-out: Growth inhibition percent (GI %)
SK-MEL-5 = assay: NCI-60 one-dose SRB screen (Melanoma); assay type: cell-based; conditions: Homo sapiens, single dose 10 µM, 48 h, read-out: Growth inhibition percent (GI %)
UACC-257 = assay: NCI-60 one-dose SRB screen (Melanoma); assay type: cell-based; conditions: Homo sapiens, single dose 10 µM, 48 h, read-out: Growth inhibition percent (GI %)
SF-539 = assay: NCI-60 one-dose SRB screen (CNS Cancer); assay type: cell-based; conditions: Homo sapiens, single dose 10 µM, 48 h, read-out: Growth inhibition percent (GI %)
U251 = assay: NCI-60 one-dose SRB screen (CNS Cancer); assay type: cell-based; conditions: Homo sapiens, U-251, single dose 10 µM, 48 h, read-out: Growth inhibition percent (GI %)
SF-295 = assay: NCI-60 one-dose SRB screen (CNS Cancer); assay type: cell-based; conditions: Homo sapiens, single dose 10 µM, 48 h, read-out: Growth inhibition percent (GI %)
SF-268 = assay: NCI-60 one-dose SRB screen (CNS Cancer); assay type: cell-based; conditions: Homo sapiens, single dose 10 µM, 48 h, read-out: Growth inhibition percent (GI %)
SNB-75 = assay: NCI-60 one-dose SRB screen (CNS Cancer); assay type: cell-based; conditions: Homo sapiens, single dose 10 µM, 48 h, read-out: Growth inhibition percent (GI %)
SNB-19 = assay: NCI-60 one-dose SRB screen (CNS Cancer); assay type: cell-based; conditions: Homo sapiens, single dose 10 µM, 48 h, read-out: Growth inhibition percent (GI %)
hCA IX = hCA IX (Homo sapiens, UniProt Q16790); assay: CA inhibitory activity, spectrophotometric p-NPA assay; assay type: biochemical; conditions: p-NPA substrate, pH 7.5, 25 °C, triplicate; read-out: IC50 (µM) ± SD hCA IX
COLO 205 = assay: NCI-60 one-dose SRB screen (Colon Cancer); assay type: cell-based; conditions: Homo sapiens, single dose 10 µM, 48 h, read-out: Growth inhibition percent (GI %)
HCC-2998 = assay: NCI-60 one-dose SRB screen (Colon Cancer); assay type: cell-based; conditions: Homo sapiens, single dose 10 µM, 48 h, read-out: Growth inhibition percent (GI %)
HT29 = assay: NCI-60 one-dose SRB screen (Colon Cancer); assay type: cell-based; conditions: Homo sapiens, HT-29, single dose 10 µM, 48 h, read-out: Growth inhibition percent (GI %)
SW-620 = assay: NCI-60 one-dose SRB screen (Colon Cancer); assay type: cell-based; conditions: Homo sapiens, single dose 10 µM, 48 h, read-out: Growth inhibition percent (GI %)
KM12 = assay: NCI-60 one-dose SRB screen (Colon Cancer); assay type: cell-based; conditions: Homo sapiens, single dose 10 µM, 48 h, read-out: Growth inhibition percent (GI %)
HCT-116 = assay: NCI-60 one-dose SRB screen (Colon Cancer); assay type: cell-based; conditions: Homo sapiens, single dose 10 µM, 48 h, read-out: Growth inhibition percent (GI %)
HCT-15 = assay: NCI-60 one-dose SRB screen (Colon Cancer); assay type: cell-based; conditions: Homo sapiens, single dose 10 µM, 48 h, read-out: Growth inhibition percent (GI %)
SN12C = assay: NCI-60 one-dose SRB screen (Renal Cancer); assay type: cell-based; conditions: Homo sapiens, single dose 10 µM, 48 h, read-out: Growth inhibition percent (GI %)

hCA XII, sequence (O43570 25-354): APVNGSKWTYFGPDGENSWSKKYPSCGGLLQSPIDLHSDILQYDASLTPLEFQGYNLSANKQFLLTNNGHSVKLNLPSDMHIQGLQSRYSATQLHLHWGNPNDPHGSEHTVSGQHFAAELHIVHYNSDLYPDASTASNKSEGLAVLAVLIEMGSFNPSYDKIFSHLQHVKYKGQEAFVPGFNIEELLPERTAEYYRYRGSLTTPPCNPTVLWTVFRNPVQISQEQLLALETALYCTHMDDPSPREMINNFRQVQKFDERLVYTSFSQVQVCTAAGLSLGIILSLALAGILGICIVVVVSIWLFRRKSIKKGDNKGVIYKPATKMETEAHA

NC(=S)NNC(=O)c1cn(-c2ccc(S(N)(=O)=O)cc2)nc1-c1ccccc1 [Compound 9a, 2-[3-Phenyl-1-(4-sulfamoylphenyl)-1H-pyrazole-4-carbonyl] hydrazine-1-carbothioamide]
inhibition at 10 µM (NCI-H322M): < 5% | inhibition at 10 µM (NCI-H23): < 5% | inhibition at 10 µM (HOP-62): 8.3% | inhibition at 10 µM (A549/ATCC): 10.9% | inhibition at 10 µM (HOP-92): < 5% | inhibition at 10 µM (NCI-H226): < 5% | inhibition at 10 µM (NCI-H460): < 5% | inhibition at 10 µM (NCI-H522): 23.9% | inhibition at 10 µM (EKVX): < 5% | inhibition at 10 µM (MOLT-4): < 5% | inhibition at 10 µM (K-562): < 5% | inhibition at 10 µM (CCRF-CEM): < 5% | inhibition at 10 µM (HL-60(TB)): < 5% | inhibition at 10 µM (RPMI-8226): < 5% | inhibition at 10 µM (SR): < 5% | IC50 (hCA XII): 0.605 ± 0.023 µM | inhibition at 10 µM (PC-3): < 5% | inhibition at 10 µM (DU-145): < 5% | inhibition at 10 µM (ACHN): < 5% | inhibition at 10 µM (CAKI-1): < 5% | inhibition at 10 µM (UO-31): < 5% | inhibition at 10 µM (A498): < 5% | inhibition at 10 µM (RXF 393): < 5% | inhibition at 10 µM (TK-10): 12.3% | inhibition at 10 µM (786-0): 9.98% | inhibition at 10 µM (SK-MEL-28): < 5% | inhibition at 10 µM (SK-MEL-2): < 5% | inhibition at 10 µM (MALME-3M): < 5% | inhibition at 10 µM (UACC-62): 8.26% | inhibition at 10 µM (M14): < 5% | inhibition at 10 µM (SK-MEL-5): < 5% | inhibition at 10 µM (UACC-257): < 5% | inhibition at 10 µM (SF-539): 6.07% | inhibition at 10 µM (U251): < 5% | inhibition at 10 µM (SF-295): < 5% | inhibition at 10 µM (SF-268): < 5% | inhibition at 10 µM (SNB-75): < 5% | inhibition at 10 µM (SNB-19): < 5% | IC50 (hCA IX): 0.21 µM and 0.215 µM | inhibition at 10 µM (COLO 205): < 5% | inhibition at 10 µM (HCC-2998): < 5% | inhibition at 10 µM (HT29): 10.8% | inhibition at 10 µM (SW-620): < 5% | inhibition at 10 µM (KM12): < 5% | inhibition at 10 µM (HCT-116): < 5% | inhibition at 10 µM (HCT-15): < 5%

NC(=S)NNC(=O)c1cn(-c2ccc(S(N)(=O)=O)cc2)nc1-c1ccc(Br)cc1 [Compound 9d, 2-[3-(4-Bromophenyl)-1-(4-sulfamoylphenyl)-1H-pyrazole-4-carbonyl] hydrazine-1-carbothioamide]
inhibition at 10 µM (NCI-H322M): 14.9% | inhibition at 10 µM (NCI-H23): < 5% | inhibition at 10 µM (HOP-62): < 5% | inhibition at 10 µM (A549/ATCC): < 5% | inhibition at 10 µM (HOP-92): < 5% | inhibition at 10 µM (NCI-H226): < 5% | inhibition at 10 µM (NCI-H460): < 5% | inhibition at 10 µM (NCI-H522): 8.15% | inhibition at 10 µM (EKVX): < 5% | inhibition at 10 µM (MOLT-4): < 5% | inhibition at 10 µM (K-562): < 5% | inhibition at 10 µM (CCRF-CEM): < 5% | inhibition at 10 µM (HL-60(TB)): < 5% | inhibition at 10 µM (RPMI-8226): < 5% | inhibition at 10 µM (SR): 6.97% | IC50 (hCA XII): 1.42 ± 0.053 µM | inhibition at 10 µM (PC-3): < 5% | inhibition at 10 µM (DU-145): < 5% | inhibition at 10 µM (ACHN): < 5% | inhibition at 10 µM (CAKI-1): 12.1% | inhibition at 10 µM (SN12C): < 5% | inhibition at 10 µM (UO-31): 14.7% | inhibition at 10 µM (A498): < 5% | inhibition at 10 µM (RXF 393): < 5% | inhibition at 10 µM (TK-10): < 5% | inhibition at 10 µM (786-0): < 5% | inhibition at 10 µM (SK-MEL-28): < 5% | inhibition at 10 µM (SK-MEL-2): < 5% | inhibition at 10 µM (MALME-3M): 10.9% | inhibition at 10 µM (UACC-62): < 5% | inhibition at 10 µM (M14): < 5% | inhibition at 10 µM (SK-MEL-5): < 5% | inhibition at 10 µM (UACC-257): < 5% | inhibition at 10 µM (SF-539): 6.59% | inhibition at 10 µM (U251): < 5% | inhibition at 10 µM (SF-295): < 5% | inhibition at 10 µM (SF-268): < 5% | inhibition at 10 µM (SNB-75): 12.1% | inhibition at 10 µM (SNB-19): < 5% | inhibition at 10 µM (COLO 205): < 5% | inhibition at 10 µM (HCC-2998): < 5% | inhibition at 10 µM (HT29): < 5% | inhibition at 10 µM (SW-620): < 5% | inhibition at 10 µM (KM12): < 5% | inhibition at 10 µM (HCT-116): < 5% | inhibition at 10 µM (HCT-15): < 5%
